In patent US10584115B2, “Substituted pyridine and pyrazine BMI-1 inhibitors” (PTC Therapeutics, Inc., priority 2013, dated 2020):

What follows are compounds tested on Bmi-1 protein (assay: Sandwich ELISA Assay (Bmi-1 protein level in HT-1080 cells after compound treatment)). Conditions: Table 1, Bmi-1 sandwich ELISA, read-out: ELISA EC50 value for Bmi-1 protein.
Type: cell-based
Procedure, shortened: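 HT-1080 cells exposed to compounds for 40–48 h at 37 °C (0.5% DMSO final), then lysed. Bmi-1 in lysates measured by sandwich ELISA (mouse monoclonal capture, rabbit anti-Bmi-1 detection, HRP anti-rabbit, TMB), read at OD450 with OD570 reference against a recombinant Bmi-1 standard curve (0–8000 pg/mL).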

Structure (SMILES)	EC50
CSc1nc2ccccn2c1-c1cncc(Nc2ccc(C(F)(F)F)cc2)n1 [compound 191, 6-[2-(methylsulfanyl)imidazo[1,2-a]pyridin-3-yl]-N-[4-(trifluoromethyl)phenyl]pyrazin-2-amine]	1 to 10 nM
Cc1nc2cc(Cl)c(Cl)cc2n1-c1cncc(Nc2ccc(OC(F)(F)F)cc2)n1 [compound 192, 6-(5,6-dichloro-2-methyl-1H-benzimidazol-1-yl)-N-[4-(trifluoromethoxy)phenyl]pyrazin-2-amine]	10 to 100 nM
Cc1nc2cc(Cl)c(Cl)cc2n1-c1cncc(Nc2ccc(C(F)(F)F)cc2)n1 [compound 193, 6-(5,6-dichloro-2-methyl-1H-benzimidazol-1-yl)-N-[4-(trifluoromethyl)phenyl]pyrazin-2-amine]	10 to 100 nM
FC(F)(F)c1ccc(Nc2cccc(-c3c(C(F)(F)F)nc4cnccn34)n2)cc1 [compound 194, 6-[2-(trifluoromethyl)imidazo[1,2-a]pyrazin-3-yl]-N-[4-(trifluoromethyl)phenyl]pyridin-2-amine]	10 to 100 nM
FC(F)(F)Oc1ccc(Nc2cccc(-c3c(C(F)(F)F)nc4cnccn34)n2)cc1 [compound 195, N-[4-(trifluoromethoxy)phenyl]-6-[2-(trifluoromethyl)imidazo[1,2-a]pyrazin-3-yl]pyridin-2-amine]	100 to 3000 nM
FC(F)Oc1ccc(Nc2cccc(-c3c(C(F)(F)F)nc4cnccn34)n2)cc1 [compound 196, N-[4-(difluoromethoxy)phenyl]-6-[2-(trifluoromethyl)imidazo[1,2-a]pyrazin-3-yl]pyridin-2-amine]	10 to 100 nM
O=[N+]([O-])c1cc(Nc2ccc(OC(F)(F)F)cc2)nc(-c2c(C(F)(F)F)nc3ccccn23)c1 [compound 197, 4-nitro-N-[4-(trifluoromethoxy)phenyl]-6-[2-(trifluoromethyl)imidazo[1,2-a]pyridin-3-yl]pyridin-2-amine]	10 to 100 nM
Nc1cc(Nc2ccc(OC(F)(F)F)cc2)nc(-c2c(C(F)(F)F)nc3ccccn23)c1 [compound 198, N^2-[4-(trifluoromethoxy)phenyl]-6-[2-(trifluoromethyl)imidazo[1,2-a]pyridin-3-yl]pyridine-2,4-diamine]	10 to 100 nM
Cc1nc2cc(F)c(F)cc2n1-c1cncc(Nc2ccc(OC(F)F)cc2)n1 [compound 199, N-[4-(difluoromethoxy)phenyl]-6-(5,6-difluoro-2-methyl-1H-benzimidazol-1-yl)pyrazin-2-amine]	1 to 10 nM
FC(F)(F)c1nc2ccccn2c1-c1cncc(Nc2cnc(Cl)nc2)n1 [compound 200, 2-chloro-N-{6-[2-(trifluoromethyl)imidazo[1,2-a]pyridin-3-yl]pyrazin-2-yl}pyrimidin-5-amine]	100 to 3000 nM
Oc1ccc(Nc2cncc(-c3c(C(F)(F)F)nc4ccccn34)n2)cc1 [compound 207, 4-({6-[2-(trifluoromethyl)imidazo[1,2-a]pyridin-3-yl]pyrazin-2-yl}amino)phenol]	100 to 3000 nM
Cc1nc2ccccc2n1-c1cncc(Nc2ccc(C(F)(F)F)c(F)c2)n1 [compound 209, N-[3-fluoro-4-(trifluoromethyl)phenyl]-6-(2-methyl-1H-benzimidazol-1-yl)pyrazin-2-amine]	10 to 100 nM
N#Cc1cc(Nc2ccc(C(F)(F)F)cc2)nc(-c2c(C(F)(F)F)nc3ccccn23)c1 [compound 210, 2-[2-(trifluoromethyl)imidazo[1,2-a]pyridin-3-yl]-6-{[4-(trifluoromethyl)phenyl]amino}pyridine-4-carbonitrile]	10 to 100 nM
FC(F)(F)Sc1ccc(Nc2cncc(-c3c(C(F)(F)F)nc4ccccn34)n2)cc1 [compound 211, 6-[2-(trifluoromethyl)imidazo[1,2-a]pyridin-3-yl]-N-{4-[(trifluoromethyl)sulfanyl]phenyl}pyrazin-2-amine]	100 to 3000 nM
O=C(c1ccc(Nc2cncc(-c3c(C(F)(F)F)nc4ccccn34)n2)cc1)C(F)(F)F [compound 212, 2,2,2-trifluoro-1-[4-({6-[2-(trifluoromethyl)imidazo[1,2-a]pyridin-3-yl]pyrazin-2-yl}amino)phenyl]ethanone]	100 to 3000 nM
OCc1nc2ccccn2c1-c1cncc(Nc2ccc(OC(F)(F)F)cc2)n1 [compound 213, [3-(6-{[4-(trifluoromethoxy)phenyl]amino}pyrazin-2-yl)imidazo[1,2-a]pyridin-2-yl]methanol]	100 to 3000 nM
Cc1ccc(Nc2cncc(-c3c(CO)nc4ccccn34)n2)cc1 [compound 214, (3-{6-[(4-methylphenyl)amino]pyrazin-2-yl}imidazo[1,2-a]pyridin-2-yl)methanol]	< 1 nM
OCc1nc2ccccn2c1-c1cncc(Nc2ccc(OC(F)F)cc2)n1 [compound 215, [3-(6-{[4-(difluoromethoxy)phenyl]amino}pyrazin-2-yl)imidazo[1,2-a]pyridin-2-yl]methanol]	1 to 10 nM

Structure (SMILES)	EC50
N#Cc1cc(Nc2ccc(OC(F)(F)F)cc2)nc(-c2c(C(F)(F)F)nc3ccccn23)c1 [compound 218, 2-{[4-(trifluoromethoxy)phenyl]amino}-6-[2-(trifluoromethyl)imidazo[1,2-a]pyridin-3-yl]pyridine-4-carbonitrile]	10 to 100 nM
Cc1nc2ccc(Cl)cc2n1-c1cncc(Nc2ccc(OC(F)(F)F)cc2)n1 [compound 220, 6-(6-chloro-2-methyl-1H-benzimidazol-1-yl)-N-[4-(trifluoromethoxy)phenyl]pyrazin-2-amine]	10 to 100 nM
Cc1nc2ccc(Cl)cc2n1-c1cncc(Nc2ccc(OC(F)F)cc2)n1 [compound 221, 6-(6-chloro-2-methyl-1H-benzimidazol-1-yl)-N-[4-(difluoromethoxy)phenyl]pyrazin-2-amine]	1 to 10 nM
N#Cc1cc(Nc2ccc(OC(F)(F)F)cc2)nc(-c2c(C(F)(F)F)nc3ccc(F)cn23)c1 [compound 222, 2-[6-fluoro-2-(trifluoromethyl)imidazo[1,2-a]pyridin-3-yl]-6-{[4-(trifluoromethoxy)phenyl]amino}pyridine-4-carbonitrile]	10 to 100 nM
Cc1nc2cc(Cl)ccc2n1-c1cncc(Nc2ccc(OC(F)(F)F)cc2)n1 [compound 223, 6-(5-chloro-2-methyl-1H-benzimidazol-1-yl)-N-[4-(trifluoromethoxy)phenyl]pyrazin-2-amine]	100 to 3000 nM
Cc1nc2cc(Cl)ccc2n1-c1cncc(Nc2ccc(OC(F)F)cc2)n1 [compound 224, 6-(5-chloro-2-methyl-1H-benzimidazol-1-yl)-N-[4-(difluoromethoxy)phenyl]pyrazin-2-amine]	10 to 100 nM
CNc1ccc2nc(C)n(-c3cncc(Nc4ccc(OC(F)(F)F)cc4)n3)c2c1 [compound 225, N,2-dimethyl-1-(6-{[4-(trifluoromethoxy)phenyl]amino}pyrazin-2-yl)-1H-benzimidazol-6-amine]	100 to 3000 nM
Cc1n[nH]c(C)c1-c1cncc(Nc2ccc(C(F)(F)F)cc2)n1 [compound 226, 6-(3,5-dimethyl-1H-pyrazol-4-yl)-N-[4-(trifluoromethyl)phenyl]pyrazin-2-amine]	100 to 3000 nM
Cc1nc2cc(F)c(F)cc2n1-c1cc(N)cc(Nc2ccc(C(F)(F)F)cc2)n1 [compound 231, 6-(5,6-difluoro-2-methyl-1H-benzimidazol-1-yl)-N^2-[4-(trifluoromethyl)phenyl]pyridine-2,4-diamine]	10 to 100 nM
Cc1nc2cc(Cl)ccc2n1-c1cncc(Nc2ccc(C(F)(F)F)cc2)n1 [compound 239, 6-(5-chloro-2-methyl-1H-benzimidazol-1-yl)-N-[4-(trifluoromethyl)phenyl]pyrazin-2-amine]	10 to 100 nM
Cc1nc2ccc(Cl)cc2n1-c1cncc(Nc2ccc(C(F)(F)F)cc2)n1 [compound 240, 6-(6-chloro-2-methyl-1H-benzimidazol-1-yl)-N-[4-(trifluoromethyl)phenyl]pyrazin-2-amine]	10 to 100 nM
Cc1nc2cc(F)c(F)cc2n1-c1cc(C#N)cc(Nc2ccc(C(F)(F)F)cc2)n1 [compound 241, 2-(5,6-difluoro-2-methyl-1H-benzimidazol-1-yl)-6-{[4-(trifluoromethyl)phenyl]amino}pyridine-4-carbonitrile]	10 to 100 nM
Cc1nc2cc(F)c(F)cc2n1-c1cc(C#N)cc(Nc2ccc(OC(F)F)cc2)n1 [compound 242, 2-{[4-(difluoromethoxy)phenyl]amino}-6-(5,6-difluoro-2-methyl-1H-benzimidazol-1-yl)pyridine-4-carbonitrile]	10 to 100 nM
Cc1nc2cc(F)c(F)cc2n1-c1cc(C#N)cc(Nc2ccc(OC(F)(F)F)cc2)n1 [compound 243, 2-(5,6-difluoro-2-methyl-1H-benzimidazol-1-yl)-6-{[4-(trifluoromethoxy)phenyl]amino}pyridine-4-carbonitrile]	100 to 3000 nM
FC(F)Oc1ccc(Nc2cncc(-c3c(C4CC4)nc4ccc(C(F)(F)F)cn34)n2)cc1 [compound 251, 6-[2-cyclopropyl-6-(trifluoromethyl)imidazo[1,2-a]pyridin-3-yl]-N-[4-(difluoromethoxy)phenyl]pyrazin-2-amine]	10 to 100 nM
Cc1nc2c(F)cc(F)cn2c1-c1cncc(Nc2ccc(OC(F)F)cc2)n1 [compound 255, N-[4-(difluoromethoxy)phenyl]-6-(6,8-difluoro-2-methylimidazo[1,2-a]pyridin-3-yl)pyrazin-2-amine]	1 to 10 nM
Cc1nc2ccccc2n1-c1cncc(Nc2ccc(C(C)N)cc2)n1 (stereo not shown) [compound 256, N-[4-(1-aminoethyl)phenyl]-6-(2-methyl-1H-benzimidazol-1-yl)pyrazin-2-amine]	100 to 3000 nM

Same assay, conditions: read-out: ELISA EC50 value for Bmi-1 protein, Table 1, Bmi-1 sandwich ELISA

Structure (SMILES)	EC50
FC(F)(F)c1ccc(Nc2cncc(-c3cnc4ccccn34)n2)cc1 [compound 235, 6-(imidazo[1,2-a]pyridin-3-yl)-N-[4-(trifluoromethyl)phenyl]pyrazin-2-amine]	100 to 3000 nM
Cc1nc2c(F)cc(F)cn2c1-c1cncc(Nc2ccc(C(F)(F)F)cc2)n1 [compound 254, 6-(6,8-difluoro-2-methylimidazo[1,2-a]pyridin-3-yl)-N-[4-(trifluoromethyl)phenyl]pyrazin-2-amine]	1 to 10 nM
